According to patent US10905660B2, “Microparticles” (NovaBiotics Limited, priority 2016, dated 2021):

How the values were obtained:
Format in all cases: in vivo
[1] = tested on: Pseudomonas aeruginosa ATCC 27853; assay: Mouse IN neutropenic lung burden model, Lynovex/lactose study; details: 24 h post-infection
Experimental: (§1) Assessment of Efficacy of Lynovex (Cysteamine) Prep in a Mouse IN Neutropenic model of Pseudomonas aeruginosa ATCC 27853 (Lung Burden Model)
(§2) Animals were immunosuppressed/pre-conditioned with either 200 mg/kg or 150 mg/kg cyclophosphamide. Lynovex, chemical name cysteamine, and vehicle were either prepared either as Lynovex and lactose vehicle, or Lynovex and mannitol-based vehicle (both provided by Upperton (Upperton product)). These were prepared for treatment and vehicle-control alone respectively, and in combination. Tobramycin was prepared as an inhalation formulation in lactose. All treatments were administered using a Penn Century device. Phosphate buffered saline (PBS) and Pseudomonas selective agar were required for bacterial tissue burden.
(§3) Male CD1 mice (n=6 for treatment groups, plus five in pre-treatment group, totalling 35 mice) were used in this study. On day −4, the mice were immunosuppressed/pre-conditioned with 200 mg/kg cyclophosphamide intraperitoneally; and with 150 mg/kg cyclophosphamide intraperitoneally on day −1. An infection was established with P. aeruginosa ATCC27853, with an inoculum of 5×10^6 cfu/ml, administered intranasally in a volume of 40 μl following anaesthetisation with a ketamine/xylazine anaesthetic cocktail for 15 minutes, for the Lynovex prepared in lactose study, and an inoculum of 4×10^6 for the Upperton Lynovex product.
All treatments were administered intratracheally using a Penn Century device.
Lynovex (cysteamine) was administered at 1.5 mg alone, and in combination with lactose at the following concentrations: Lynovex 0.75 mg+2.25 mg lactose powder, Lynovex 1.5 mg+1.5 mg lactose powder, Lynovex 2.25 mg+0.75 mg, along with a vehicle only control of 3 mg lactose. In addition, Tobramycin at 188 μg/dose was administered, as an inhaled formulation which was mixed with lactose to aid measurement. The treatments were administered approximately 5 minutes after infection.
(§4) The lung tissue burden of each animal, at the clinical end point of 24 h post-infection, was determined. The lungs were homogenised in 2 ml PBS, serially diluted in PBS and plated onto Pseudomonas selective agar before quantification after 24-48 h at 37° C.

[2] = Mouse weights before and after infection; details: P. aeruginosa infected neutropenic CD1 mice, Upperton product study (FIG. 6)
Experimental: as §3
In a different study, Lynovex was administered at the following doses: 3 mg 5% Lynovex and 3 mg 10% Lynovex. Lynovex in combination with Tobramycin as follows: 3 mg 5% Lynovex+Tobramycin 0.188 mg in 1.5 mg vehicle, 3 mg 10% Lynovex+Tobramycin 0.188 mg in 1.5 mg Vehicle (mannitol-based, provided by Upperton) and a Tobramycin only control (0.188 mg/dose in lactose vehicle). The treatments were administered once approximately 10 minutes after infection.
Additionally, mouse weights were recorded before and after infection. Mice treated with vehicle, Lynovex monotherapy or Tobramycin monotherapy lost weight following infection. […]

[3] = tested on: Pseudomonas aeruginosa ATCC 27853; assay: Mouse IN neutropenic lung burden model, Lynovex Upperton product (mannitol-based) study; details: 0.188 mg inhalation formulation, intratracheal, 24 h post-infection; highly variable burdens
Experimental: as §1, §2
Male CD1 mice (n=6 for treatment groups, plus five in pre-treatment group, totalling 35 mice) were used in this study. On day −4, the mice were immunosuppressed/pre-conditioned with 200 mg/kg cyclophosphamide intraperitoneally; and with 150 mg/kg cyclophosphamide intraperitoneally on day −1. […]
as §4

Compound: NCCS [Lynovex, cysteamine]
- mice clearing the infection to below the detection limit ([1]; 1.5 mg intratracheal): 5/6
- lung burden compared to vehicle ([1]; 1.5 mg intratracheal, P=0.0072): reduced the lung burden
- mice clearing the infection to below the detection limit ([1]; 2.25 mg intratracheal): 4/6
- lung burden compared to vehicle ([1]; 2.25 mg intratracheal, P=0.0349): reduced the lung burden

Compound: NC[C@H]1O[C@H](O[C@H]2[C@H](O)[C@@H](O[C@H]3O[C@H](CO)[C@@H](O)[C@H](N)[C@H]3O)[C@H](N)C[C@@H]2N)[C@H](N)C[C@@H]1O [Tobramycin]
- mouse weight following infection [2]: lost weight
- animals that cleared the infection to below the limit of detection ([1]; 0.188 mg inhalation formulation, intratracheal): 5/6
- lung burden compared with vehicle-treated mice ([1]; 0.188 mg inhalation formulation, intratracheal, CD1 mice, P=0.0097 Kruskal Wallis test): statistically significant reduction in lung burden
- average reduction in lung burden compared with vehicle-treated mice [3]: 1.61 log10 cfu/g
